Test results from patent US20240300932A1, “N-PHENYLIMINE DERIVATIVE AND PREPARATION METHOD AND USE THEREOF” (Guizhou University, priority 2023, published 2024).

What was measured:
Test in all cases: Post-emergence herbicidal activity test (stem and leaf spray, pot culture)
Assay type in all cases: in vivo
Conditions in all cases: 3 weeks after spraying
[1] = test system: Echinochloa crusgalli
Outline: (§1)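 Foliar spray, 2–3-leaf stage, 10/5/2.5 g/mu; acetone/Tween 80 + methyl oleate 1.5 L/ha. Greenhouse 3 wk, 20–30 °C. Score: fresh-wt control, grade 5 ≥85% … grade 0 <5%.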

[2] = test system: Amaranthus retroflexus
Outline: as §1

[3] = test system: Portulaca oleracea
Outline: as §1

[4] = test system: Setaria viridis
Outline: as §1

[5] = test system: Abutilon theophrasti
Outline: as §1

[6] = test system: Trifoliumre pensL.
Outline: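 Rates of 10, 5 and 2.5 g/mu were applied in a single spray-tower treatment to 2–3-leaf plants, thinned to 10 per pot. Formulation: acetone solution, Tween 80, 1.5 L/ha methyl oleate synergist. Weed response assessed after 3 further greenhouse weeks; mean of three experiments.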

SMILES | Post-emergence herbicidal activity, E. crusgalli (grade) ([1]; dosage 2.5 g/mu) | Post-emergence herbicidal activity, E. crusgalli (grade) ([1]; dosage 5 g/mu) | Post-emergence herbicidal activity, E. crusgalli (grade) ([1]; dosage 10 g/mu) | Post-emergence herbicidal activity, A. retroflexus (grade) ([2]; dosage 2.5 g/mu) | Post-emergence herbicidal activity, A. retroflexus (grade) ([2]; dosage 5 g/mu) | Post-emergence herbicidal activity, A. retroflexus (grade) ([2]; dosage 10 g/mu) | Post-emergence herbicidal activity, P. oleracea (grade) ([3]; dosage 2.5 g/mu) | Post-emergence herbicidal activity, P. oleracea (grade) ([3]; dosage 5 g/mu) | Post-emergence herbicidal activity, P. oleracea (grade) ([3]; dosage 10 g/mu) | Post-emergence herbicidal activity, S. viridis (grade) ([4]; dosage 2.5 g/mu) | Post-emergence herbicidal activity, S. viridis (grade) ([4]; dosage 5 g/mu) | Post-emergence herbicidal activity, S. viridis (grade) ([4]; dosage 10 g/mu) | Post-emergence herbicidal activity, A. theophrasti (grade) ([5]; dosage 2.5 g/mu) | Post-emergence herbicidal activity, A. theophrasti (grade) ([5]; dosage 5 g/mu) | Post-emergence herbicidal activity, A. theophrasti (grade) ([5]; dosage 10 g/mu) | Post-emergence herbicidal activity, Trifoliumre pensL. (grade) ([6]; dosage 2.5 g/mu) | Post-emergence herbicidal activity, Trifoliumre pensL. (grade) ([6]; dosage 5 g/mu) | Post-emergence herbicidal activity, Trifoliumre pensL. (grade) ([6]; dosage 10 g/mu)
O=C1C2=C(CCCC2)C(=O)N1c1cc(OCc2nnc(-c3ccccc3I)o2)c(Cl)cc1F [Compound B7] | 1 (Grade 1: the growth control rate is greater than or equal to 5% and less than 20%) | 2 (Grade 2: the growth control rate is greater than or equal to 20% and less than 40%) | 3 (Grade 3: the growth control rate is greater than or equal to 40% and less than 60%) | 5 (Grade 5: the growth control rate is greater than or equal to 85%) | 5 (Grade 5: the growth control rate is greater than or equal to 85%) | 5 (Grade 5: the growth control rate is greater than or equal to 85%) | 5 (Grade 5: the growth control rate is greater than or equal to 85%) | 5 (Grade 5: the growth control rate is greater than or equal to 85%) | 5 (Grade 5: the growth control rate is greater than or equal to 85%) | 2 (Grade 2: the growth control rate is greater than or equal to 20% and less than 40%) | 3 (Grade 3: the growth control rate is greater than or equal to 40% and less than 60%) | 4 (Grade 4: the growth control rate is greater than or equal to 60% and less than 85%) | 5 (Grade 5: the growth control rate is greater than or equal to 85%) | 5 (Grade 5: the growth control rate is greater than or equal to 85%) | 5 (Grade 5: the growth control rate is greater than or equal to 85%) | 5 (Grade 5: the growth control rate is greater than or equal to 85%) | 5 (Grade 5: the growth control rate is greater than or equal to 85%) | 5 (Grade 5: the growth control rate is greater than or equal to 85%)
O=C1C2=C(CCCC2)C(=O)N1c1cc(OCc2nc(-c3ccc(OC(F)(F)F)cc3)no2)c(Cl)cc1F [Compound A20] | 1 (Grade 1: the growth control rate is greater than or equal to 5% and less than 20%) | 2 (Grade 2: the growth control rate is greater than or equal to 20% and less than 40%) | 3 (Grade 3: the growth control rate is greater than or equal to 40% and less than 60%) | 5 (Grade 5: the growth control rate is greater than or equal to 85%) | 5 (Grade 5: the growth control rate is greater than or equal to 85%) | 5 (Grade 5: the growth control rate is greater than or equal to 85%) | 4 (Grade 4: the growth control rate is greater than or equal to 60% and less than 85%) | 5 (Grade 5: the growth control rate is greater than or equal to 85%) | 5 (Grade 5: the growth control rate is greater than or equal to 85%) | 2 (Grade 2: the growth control rate is greater than or equal to 20% and less than 40%) | 3 (Grade 3: the growth control rate is greater than or equal to 40% and less than 60%) | 4 (Grade 4: the growth control rate is greater than or equal to 60% and less than 85%) | 5 (Grade 5: the growth control rate is greater than or equal to 85%) | 5 (Grade 5: the growth control rate is greater than or equal to 85%) | 5 (Grade 5: the growth control rate is greater than or equal to 85%) | 4 (Grade 4: the growth control rate is greater than or equal to 60% and less than 85%) | 5 (Grade 5: the growth control rate is greater than or equal to 85%) | 5 (Grade 5: the growth control rate is greater than or equal to 85%)
O=C1C2=C(CCCC2)C(=O)N1c1cc(OCc2nc(-c3ccc(Br)cc3Br)no2)c(Cl)cc1F [Compound A11] | 1 (Grade 1: the growth control rate is greater than or equal to 5% and less than 20%) | 2 (Grade 2: the growth control rate is greater than or equal to 20% and less than 40%) | 3 (Grade 3: the growth control rate is greater than or equal to 40% and less than 60%) | 5 (Grade 5: the growth control rate is greater than or equal to 85%) | 5 (Grade 5: the growth control rate is greater than or equal to 85%) | 5 (Grade 5: the growth control rate is greater than or equal to 85%) | 4 (Grade 4: the growth control rate is greater than or equal to 60% and less than 85%) | 5 (Grade 5: the growth control rate is greater than or equal to 85%) | 5 (Grade 5: the growth control rate is greater than or equal to 85%) | 2 (Grade 2: the growth control rate is greater than or equal to 20% and less than 40%) | 3 (Grade 3: the growth control rate is greater than or equal to 40% and less than 60%) | 4 (Grade 4: the growth control rate is greater than or equal to 60% and less than 85%) | 5 (Grade 5: the growth control rate is greater than or equal to 85%) | 5 (Grade 5: the growth control rate is greater than or equal to 85%) | 5 (Grade 5: the growth control rate is greater than or equal to 85%) | 4 (Grade 4: the growth control rate is greater than or equal to 60% and less than 85%) | 5 (Grade 5: the growth control rate is greater than or equal to 85%) | 5 (Grade 5: the growth control rate is greater than or equal to 85%)
O=C1C2=C(CCCC2)C(=O)N1c1cc(OCc2nnc(-c3ccc(Cl)cc3)o2)c(Cl)cc1F [Compound B15] | 1 (Grade 1: the growth control rate is greater than or equal to 5% and less than 20%) | 2 (Grade 2: the growth control rate is greater than or equal to 20% and less than 40%) | 3 (Grade 3: the growth control rate is greater than or equal to 40% and less than 60%) | 5 (Grade 5: the growth control rate is greater than or equal to 85%) | 5 (Grade 5: the growth control rate is greater than or equal to 85%) | 5 (Grade 5: the growth control rate is greater than or equal to 85%) | 5 (Grade 5: the growth control rate is greater than or equal to 85%) | 5 (Grade 5: the growth control rate is greater than or equal to 85%) | 5 (Grade 5: the growth control rate is greater than or equal to 85%) | 2 (Grade 2: the growth control rate is greater than or equal to 20% and less than 40%) | 3 (Grade 3: the growth control rate is greater than or equal to 40% and less than 60%) | 4 (Grade 4: the growth control rate is greater than or equal to 60% and less than 85%) | 5 (Grade 5: the growth control rate is greater than or equal to 85%) | 5 (Grade 5: the growth control rate is greater than or equal to 85%) | 5 (Grade 5: the growth control rate is greater than or equal to 85%) | 5 (Grade 5: the growth control rate is greater than or equal to 85%) | 5 (Grade 5: the growth control rate is greater than or equal to 85%) | 5 (Grade 5: the growth control rate is greater than or equal to 85%)
